According to patent publication US20220111034A1, “VIRUS COMPOSITIONS” (priority 2019, published 2022):

Key:
[1] = system: JAM-A on Lec2-JAM-A cells; test: FD-based AFM with virus-functionalized tip on living Lec2-JAM-A cells, with glycan addition; format: cell-based, human; conditions: for T3SA+ adhesion events in the high force range (400 to 500 pN) / T3SA+ binding frequency after glycan injection / T3SA+ binding frequency before glycan injection: Lec2-JAM-A cells; for T3SA+ adhesion events in the high force range (400 to 500 pN): FIG. 8; for T3SA+ binding frequency after glycan injection / T3SA+ binding frequency before glycan injection: FIG. 9; for T3SA+ binding frequency before glycan injection: baseline of the same experiment
Description: Engineering and characterization of cell lines expressing JAM-A. Monolayers of CHO (ATCC, #CCL-61) and Lec2 (ATCC, #CRL-1736) cells were transduced with lentiviruses encoding a puromycin resistance gene and human JAM-A or a puromycin resistance gene alone. Transduced cells were selected for puromycin resistance by passaging twice in medium containing 20 μg ml^−1 puromycin. The concentration of puromycin used was the minimal concentration that yielded complete death of non-transduced CHO and Lec2 cells. Following selection for puromycin resistance, cells were further selected for cell surface expression of JAM-A using fluorescence-activated cell sorting (FACS). Cell-surface expression of JAM-A was detected using the monoclonal antibody, J10.4 (Liu et al. Human junction adhesion molecule regulates tight junction resealing in epithelia. J. Cell Sci. 2000, vol. 113, 2363-2374), and a fraction of cells with high JAM-A expression was collected and propagated using puromycin selection. In the ensuing Examples, cells transduced and selected for puromycin resistance alone will be referred to as CHO and Lec2 and those selected for puromycin resistance and JAM-A expression will be referred to as CHO-JAM-A and Lec2-JAM-A, respectively.
Correlative images were acquired on an AFM (Bioscope Catalyst and Bioscope Resolve, Bruker) operated in the PeakForce QNM mode (Nanoscope software v9.2) to conduct FD-based AFM and coupled to an inverted epifluorescence microscope (Zeiss Observer Z.1) as described (Newton et al. 2017, supra; Knoops et al. Specific Interactions Measured by AFM on Living Cells between Peroxiredoxin-5 and TLR4: Relevance for Mechanisms of Innate Immunity. Cell chemical biology 2018, vol. 25, 550-559, e553). A 40× oil objective (NA=0.95) was used. The AFM was equipped with a 150 μm piezoelectric scanner and a cell culture chamber allowing to control the temperature, the humidity and the CO2 concentration as described (Alsteens et al. 2017, supra). Overview images of cell surfaces (20-30 μm^2) were recorded at imaging forces of ˜500 pN using PFQNM-LC probes (Bruker) having tip lengths of 17 μm, tip radii of 65 nm, and opening angles of 15°. All fluorescence microscopy and FD-based AFM imaging experiments were conducted under cell culture conditions using the combined AFM and fluorescence microscopy chamber (FIG. 1a) at 37° C. in either Mem a, nucleosides or Ham's F12 culture medium, depending on the cell type. A gas mixture of synthetic air with 5% CO2 at 95% relative humidity using a gas humidifier membrane (PermSelect silicone) was infused at 0.1 L min^−1 into the microscopy chamber. The humidity was controlled using a humidity sensor (Sensirion). Cantilevers were first calibrated using the thermal noise method (Huffer & Bechhoefer. Calibration of atomic-force microscope tips. Review of Scientific Instruments 1993, vol. 64, 1868-1873), yielding values ranging from 0.095 to 0.135 N m^−1 for PFQNM-LC probes. The AFM tip was oscillated in a sinusoidal fashion at 0.25 kHz with a 750 nm amplitude in the PeakForce Tapping mode. The sample was scanned using a frequency of 0.125 Hz and 256 pixels per line (256 lines). AFM images and FD curves were analyzed using the Nanoscope analysis software (v1.7, Bruker), Origin, and ImageJ (v1.52e). Individual FD curves detecting unbinding events between the virus and cell surface were analyzed using the Nanoscope analysis and Origin software. The baseline of the retraction curve was corrected using a linear fit on the last 30% of the retraction curve. Using the force-time curve, the loading rate (slope) of each rupture event was determined (FIG. 1c). Optical images were analyzed using Zen Blue software (Zeiss) (Alsteens et al. 2017, Newton et al. 2017, Delguste et al. 2018a, Delguste et al. 2018b, all supra).
The live cell experiments were conducted in the same manner as described above by scanning a suitable field of cells, followed by adding 1 mM of the respective glycan to the culture medium. […]

[2] = system: Lec2, Lec2-JAM-A, CHO and CHO-JAM-A cells; test: Infection of in vitro cultured cells by reovirus (Example 6); format: cell-based; conditions: co-administered with the virus; for effect on infectivity of T3SA+ towards Lec2-JAM-A and CHO-JAM-A: compared to T3SA+ without glycan
Description: T3SA+ and T3SA− reovirus stocks are prepared and purified virions obtained as set forth in Example 1. Lec2, Lec2-JAM-A, CHO and CHO-JAM-A cells are prepared and cultured as set forth in Example 1.
The cells are infected with the reovirus at a suitable multiplicity of infection (MOI) in batch suspensions or in monolayers and infectivity is analysed by an appropriate assay, such as quantification of viral protein expression in infected cells or a plaque assay.

[3] = system: Mice; test: Infection of mice by reovirus (Example 7); format: in vivo; conditions: co-administered with the virus

| Compound | T3SA+ adhesion events in the high force range (400 to 500 pN) ([1]; 1 mM glycan) | T3SA+ binding frequency after glycan injection ([1]; 1 mM glycan) [%] | T3SA+ binding frequency before glycan injection [1] [%] | effect on infectivity of T3SA− towards Lec2-JAM-A or CHO-JAM-A [2] | effect on infectivity of T3SA+ towards Lec2-JAM-A and CHO-JAM-A [2] | effect on infectivity of T3SA+ in mice [3] | effect on infectivity of T3SA− in mice [3] | T3SA+ adhesion events in the high force range after neuraminidase treatment ([1]; NA-treated cells, 1 mM glycan, FIG. 17) | increase in T3SA+ binding after glycan injection on neuraminidase-treated cells ([1]; neuraminidase 40 mUnit/mL for 1 h, then 1 mM glycan) [%] |
| --- | --- | --- | --- | --- | --- | --- | --- | --- | --- |
| sialyl-lacto-N-tetraose a [LSTa] | more adhesion events in the high force range | 4.8 | 3.8 | do not affect infectivity | significantly increase infectivity | significantly increase infectivity | do not affect infectivity | – | – |
| CC(=O)N[C@H]1[C@H]([C@H](O)[C@H](O)CO)OC(O)(C(=O)O)C[C@@H]1O (stereo partly drawn) [Neu5Ac, N-acetylneuraminic acid] | more adhesion events in the high force range | 4.9 | 3.9 | do not affect infectivity | significantly increase infectivity | significantly increase infectivity | do not affect infectivity | more adhesion events in the high force range | ~20 |
| CC(=O)N[C@H]1[C@H](O[C@H]2[C@@H](O)[C@@H](CO)O[C@@H](O[C@H]3[C@H](O)[C@@H](O)C(O)O[C@@H]3CO)[C@@H]2O)O[C@H](CO)[C@@H](O[C@@H]2O[C@H](CO)[C@H](O)[C@H](O)[C@H]2O)[C@@H]1O (mixture of isomers) [LNnT, lacto-N-neotetraose, reference compound] | no significant change | 3.9 | 3.8 | – | does not affect infectivity | does not affect infectivity | – | – | – |
